{
  "source": "patent US20260207585A1",
  "about": "“METHODS AND COMPOSITIONS FOR THE TREATMENT OF PARKINSON'S DISEASE, HUNTINGTON'S DISEASE, AMYOTROPHIC LATERAL SCLEROSIS, AND LEARNING DISORDERS” (Cedars-Sinai Medical Center, priority 2022, published 2026)",
  "key": {"[1]": {"molecular_target": "DNMT1 (Homo sapiens, UniProt P26358)", "sequence (P26358 whole entry)": "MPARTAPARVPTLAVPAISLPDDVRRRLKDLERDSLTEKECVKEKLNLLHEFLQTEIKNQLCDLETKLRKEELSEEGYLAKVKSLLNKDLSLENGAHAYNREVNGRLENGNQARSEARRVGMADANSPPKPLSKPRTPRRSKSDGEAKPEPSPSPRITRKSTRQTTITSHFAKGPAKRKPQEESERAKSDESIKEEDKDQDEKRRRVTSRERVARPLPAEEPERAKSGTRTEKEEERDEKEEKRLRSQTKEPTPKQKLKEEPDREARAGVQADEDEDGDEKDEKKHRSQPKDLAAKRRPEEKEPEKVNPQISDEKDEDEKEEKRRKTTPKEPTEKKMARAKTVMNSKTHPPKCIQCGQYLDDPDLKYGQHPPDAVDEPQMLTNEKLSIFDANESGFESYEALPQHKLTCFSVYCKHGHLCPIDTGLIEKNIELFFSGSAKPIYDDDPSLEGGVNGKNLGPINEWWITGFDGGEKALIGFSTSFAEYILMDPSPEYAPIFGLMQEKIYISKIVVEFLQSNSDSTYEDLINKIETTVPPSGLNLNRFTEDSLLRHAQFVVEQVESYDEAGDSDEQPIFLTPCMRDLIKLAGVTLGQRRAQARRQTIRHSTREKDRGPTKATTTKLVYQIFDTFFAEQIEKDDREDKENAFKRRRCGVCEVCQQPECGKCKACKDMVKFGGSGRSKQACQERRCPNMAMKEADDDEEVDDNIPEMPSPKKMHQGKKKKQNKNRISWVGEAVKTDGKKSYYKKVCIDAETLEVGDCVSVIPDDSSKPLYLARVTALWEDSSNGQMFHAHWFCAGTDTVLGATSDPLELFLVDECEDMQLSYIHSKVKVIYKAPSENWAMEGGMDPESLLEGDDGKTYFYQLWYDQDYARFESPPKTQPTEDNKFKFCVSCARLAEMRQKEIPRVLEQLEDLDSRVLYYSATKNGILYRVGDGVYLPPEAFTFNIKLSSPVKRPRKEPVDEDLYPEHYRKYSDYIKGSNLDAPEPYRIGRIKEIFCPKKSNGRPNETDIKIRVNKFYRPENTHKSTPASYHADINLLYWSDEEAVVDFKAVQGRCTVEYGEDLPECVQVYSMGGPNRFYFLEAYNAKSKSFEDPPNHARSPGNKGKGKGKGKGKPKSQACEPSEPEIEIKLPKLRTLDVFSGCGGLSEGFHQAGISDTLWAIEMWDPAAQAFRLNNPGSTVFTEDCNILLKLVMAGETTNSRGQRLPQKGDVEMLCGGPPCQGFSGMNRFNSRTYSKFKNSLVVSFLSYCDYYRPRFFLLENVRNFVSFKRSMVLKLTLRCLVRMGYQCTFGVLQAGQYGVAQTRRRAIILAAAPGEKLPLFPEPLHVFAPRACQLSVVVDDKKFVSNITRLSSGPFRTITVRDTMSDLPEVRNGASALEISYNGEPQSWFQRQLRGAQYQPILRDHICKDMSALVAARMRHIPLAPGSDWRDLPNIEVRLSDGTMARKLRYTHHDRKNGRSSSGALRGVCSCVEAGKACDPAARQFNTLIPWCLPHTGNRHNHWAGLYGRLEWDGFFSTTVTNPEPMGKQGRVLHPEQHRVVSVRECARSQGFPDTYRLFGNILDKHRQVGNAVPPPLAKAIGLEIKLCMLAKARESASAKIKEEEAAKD", "test": "Methyltransferase inhibition panel: DNMT1", "type": "biochemical", "experimental": "(§1) The ability of ETP69 to inhibit methyltransferases was tested."}, "[2]": {"molecular_target": "T1, G9a (Homo sapiens, UniProt Q96KQ7)", "T1 sequence (Q96KQ7 1-1210)": "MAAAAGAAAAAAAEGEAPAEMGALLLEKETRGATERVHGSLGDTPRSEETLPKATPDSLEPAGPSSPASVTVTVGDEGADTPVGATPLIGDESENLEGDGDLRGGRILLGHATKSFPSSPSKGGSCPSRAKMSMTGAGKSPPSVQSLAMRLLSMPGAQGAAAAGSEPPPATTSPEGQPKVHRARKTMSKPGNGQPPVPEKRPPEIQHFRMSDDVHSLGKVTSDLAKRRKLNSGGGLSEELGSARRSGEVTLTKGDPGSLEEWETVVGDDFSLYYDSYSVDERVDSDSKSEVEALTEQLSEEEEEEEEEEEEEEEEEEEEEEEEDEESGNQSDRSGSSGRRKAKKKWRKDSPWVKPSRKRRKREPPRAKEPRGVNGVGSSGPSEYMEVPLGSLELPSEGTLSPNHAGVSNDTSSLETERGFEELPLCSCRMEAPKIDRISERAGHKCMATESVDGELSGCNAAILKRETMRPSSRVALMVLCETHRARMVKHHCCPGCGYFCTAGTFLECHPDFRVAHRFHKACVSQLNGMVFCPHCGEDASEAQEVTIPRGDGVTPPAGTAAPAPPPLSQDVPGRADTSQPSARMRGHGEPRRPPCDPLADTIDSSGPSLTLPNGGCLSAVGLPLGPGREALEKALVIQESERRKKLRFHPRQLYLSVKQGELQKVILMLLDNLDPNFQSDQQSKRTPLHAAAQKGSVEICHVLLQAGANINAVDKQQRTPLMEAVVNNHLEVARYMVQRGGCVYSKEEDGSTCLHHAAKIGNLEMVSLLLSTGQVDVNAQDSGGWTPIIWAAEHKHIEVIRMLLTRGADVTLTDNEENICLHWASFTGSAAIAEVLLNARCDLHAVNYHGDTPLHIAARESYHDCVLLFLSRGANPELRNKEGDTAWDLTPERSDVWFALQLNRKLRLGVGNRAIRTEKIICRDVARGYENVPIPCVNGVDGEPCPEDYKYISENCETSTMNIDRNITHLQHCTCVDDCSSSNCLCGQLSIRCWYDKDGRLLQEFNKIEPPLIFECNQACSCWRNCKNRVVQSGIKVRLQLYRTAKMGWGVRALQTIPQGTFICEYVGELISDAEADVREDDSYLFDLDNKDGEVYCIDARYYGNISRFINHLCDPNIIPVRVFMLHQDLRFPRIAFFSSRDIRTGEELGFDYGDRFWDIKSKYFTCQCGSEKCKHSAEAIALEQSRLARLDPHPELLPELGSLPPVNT", "test": "Methyltransferase inhibition panel: G9a", "type": "biochemical", "experimental": "as §1"}, "[3]": {"molecular_target": "PRMT1 (Homo sapiens, UniProt Q99873)", "sequence (Q99873 whole entry)": "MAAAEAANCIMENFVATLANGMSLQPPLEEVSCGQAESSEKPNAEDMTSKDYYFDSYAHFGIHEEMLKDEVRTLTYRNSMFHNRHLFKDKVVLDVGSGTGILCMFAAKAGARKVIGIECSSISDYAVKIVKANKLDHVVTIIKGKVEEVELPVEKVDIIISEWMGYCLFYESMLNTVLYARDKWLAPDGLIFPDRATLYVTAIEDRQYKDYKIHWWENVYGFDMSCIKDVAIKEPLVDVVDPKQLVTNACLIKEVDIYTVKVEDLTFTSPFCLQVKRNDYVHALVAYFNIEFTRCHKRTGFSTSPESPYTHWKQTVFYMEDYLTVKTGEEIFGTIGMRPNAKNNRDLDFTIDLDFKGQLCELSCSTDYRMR", "test": "Methyltransferase inhibition panel: PRMT1", "type": "biochemical", "experimental": "as §1"}, "[4]": {"system": "wildtype and AD model (APP/PS1-transgenic) mice", "test": "Y-Maze test", "type": "in vivo", "experimental": "The effects of single and repeated ETP69 injections in mice were tested. The experimental timeline is depicted in FIG. 5. Three parallel injection conditions were tested: a single ETP69 condition, a boosted ETP69 injection, and repeated ETP69 injections. The single injection mice received one injection of ETP69 or DMSO at Day 0. The mice that received a boosted injection received one injection of ETP69 or DMSO at day 0 and one injection at day 9. The mice that received repeated injections received 11 injections of ETP69 or DMSO at day 0 or day 9. Both wildtype and AD model (APP/PS1-transgenic) mice were tested.\nTreatment with ETP69 restored CNS-related locomotor, visual, cognitive functions (FIGS. 6A-611). First, the effects of ETP69 on cognitive and visual protection was tested using the Y-Maze test."}, "[5]": {"settings": "read-out: Enzyme % Activity (relative to DMSO controls) Data 1"}, "[6]": {"settings": "read-out: Enzyme % Activity (relative to DMSO controls) Data 2"}},
  "note": "Where two headings read alike, the source gives them in different places.",
  "data": [
    {"compound": "CN1C(=O)[C@@]23C[C@](C)(C#N)[C@H](c4ccc5c(c4)OCO5)N2C(=O)[C@]1(C)SS3", "note": "(racemic) [ETP69, Rac-(3S,6S,7S,8aS)-6-(benzo[d][1,3]dioxol-5-yl)-2,3,7-trimethyl-1,4-dioxohexahydro-6H-3,8a-epidithiopyrrolo[1,2-a]pyrazine-7-carbonitrile]", "values": [
      {"measurement": "remaining activity at 20 µM", "setting": "[1]; [5]", "value": 105, "unit": "%"},
      {"measurement": "remaining activity at 20 µM", "setting": "[1]; [6]", "value": 108, "unit": "%"},
      {"measurement": "remaining activity at 2.5 µM", "setting": "[2]; [5]", "value": 40.9, "unit": "%"},
      {"measurement": "remaining activity at 2.5 µM", "setting": "[2]; [6]", "value": 38.7, "unit": "%"},
      {"measurement": "inhibition relative to DMSO controls", "setting": "[2]; summary of Table 1", "value": "at least 7500"},
      {"measurement": "remaining activity at 20 µM", "setting": "[3]; [5]", "value": 114, "unit": "%"},
      {"measurement": "remaining activity at 20 µM", "setting": "[3]; [6]", "value": 115, "unit": "%"},
      {"measurement": "percent alternation", "setting": "[4]; AD+ mice vs AD+ DMSO", "value": "significant increase"},
      {"measurement": "number of total entries (locomotor activity)", "setting": "[4]; wildtype and AD+ mice", "value": "decreased"}
    ]}
  ]
}
